Measured values reported in US12453349B2, “Compositions comprising pyridine carboxylate herbicides and 4-hydroxyphenyl-pyruvate dioxygenase (HPPD) inhibitor herbicides” (Corteva Agriscience LLC, priority 2018, dated 2025).
Values joined by “and” are separate entries in the source; they are usually repeats but may differ in a detail not shown here. Equal entries are not always repeated.

Legend:
Assay type in all cases: in vivo
[1] = test system: AMARE, Amaranthus retroflexus (pigweed); assay: Greenhouse postemergence herbicidal effect, visual injury 20-22 d after application
Description: (§1) Seeds of the desired test plant species were planted in a 90:10% v/v (volume/volume) mixture of PRO-MIX® BX (Premier Tech Horticulture, Quakertown, PA, USA) and PROFILE® GREENS GRADE™ (Profile Products LLC, Buffalo Grove, IL, USA) planting mixture, which typically has a pH of 5.2 to 6.2 and an organic matter content of at least 50 percent, in plastic pots with a surface area of 103.2 square centimeters (cm^2). In some aspects, to help ensure good germination and healthy plants, a fungicide treatment and/or other chemical or physical treatment was applied. The plants were grown for 7-36 days (d) in a greenhouse with an approximate 14-hour (h) photoperiod which was maintained at about 23° C. during the day and 22° C. during the night. Nutrients and water were added on a regular basis and supplemental lighting was provided with overhead metal halide 1000-Watt lamps as necessary. The plants were employed for testing when they reached the second or third true leaf stage.
(§2) Emulsifiable concentrates of each of each pyridine carboxylate herbicide (Compound A or Compound B) were prepared at 100 grams acid equivalent per liter (g ae/L). The emulsifiable concentrates also included a safener, cloquintocet mexyl, at 120 grams active ingredient per liter (g ai/L). An aliquot of each emulsifiable concentrate was placed in a 25 mL glass vial and diluted with an aqueous mixture of 1.25% (v/v) ACTIROB® B esterified rapeseed oil (Bayer Crop Science, Research Triangle Park, NC, USA) or MSO® Concentrate with LECI-TECH® methylated soybean oil (Loveland Products, Loveland, CO, USA) to obtain concentrated stock solutions at the highest application rate for each herbicide, based upon a 12 milliliter (mL) application volume at a rate of 187 liters per hectare (L/ha). The concentrated stock solutions were further diluted with an aqueous mixture of 1.25% v/v ACTIROB® B or MSO® Concentrate with LECI-TECH® to obtain stock solutions at reduced application rates for each herbicide. Spray solutions of the herbicide combinations (Compound A or Compound B plus HPPD inhibitor herbicide) were prepared by adding weighed amounts or aliquots of the HPPD inhibitor herbicides to the stock solutions of Compound A or Compound B to form 12-mL spray solutions in two-way combinations.
(§3) The spray solutions were applied to the plant material with an overhead Mandel track sprayer equipped with 8002E nozzles calibrated to deliver 187 L/ha over an application area of 0.503 square meters (m^2) at a spray height of 18 inches (43 centimeters (cm)) above the average plant canopy. Control plants were sprayed in the same manner with the solvent blank. All pyridine carboxylate herbicide (component a) application rates are given as “g ae/ha” and all HPPD inhibitor herbicide (component b) application rates are given as “g ai/ha.”
(§4) The treated plants and control plants were placed in a greenhouse as described above and watered by sub-irrigation to prevent wash-off of the test compounds. After 20-22 d, the condition of the test plants as compared with that of the control plants was determined visually and scored on a scale of 0 to 100 percent where 0 corresponds to no injury and 100 corresponds to complete kill.

[2] = test system: CIRAR, Cirsium arvense (Canadian thistle); assay: as above
Description: as §1, §2, §3, §4

[3] = test system: KCHSC, Kochia scoparia (kochia); assay: as above; settings: Bassia scoparia, post-emergence, read-out: % visual injury Obs
Description: as §1, §2, §3, §4

[4] = test system: CHEAL, Chenopodium album L. (common lambsquarters); assay: as above
Description: as §1, §2, §3, §4

[5] = test system: SINAR, Sinapis arvensis (wild mustard); assay: as above
Description: as §1, §2, §3, §4

[6] = test system: MATCH, Matricaria chamomilla (wild chamomile); assay: as above
Description: as §1, §2, §3, §4

[7] = test system: POLCO, Polygonum convolvulus (wild buckwheat); assay: as above
Description: as §1, §2, §3, §4

[8] = test system: BRSNW, Brassica napus (winter rape); assay: as above
Description: as §1, §2, §3, §4

[9] = test system: SASKR, Salsola kali (Russian thistle); assay: as above
Description: as §1, §2, §3, §4

[10] = test system: HORVS, Hordeum vulgare (spring barley); assay: Greenhouse postemergence phytotoxicity on crop, visual injury 20-22 d after application
Description: as §1, §2, §3, §4

[11] = test system: TRZAS, Triticum aestivum (spring wheat); assay: as above
Description: as §1, §2, §3, §4

[12] = test system: HELAN, Helianthus annuus (common sunflower); assay: Greenhouse postemergence herbicidal effect, visual injury 20-22 d after application
Description: as §1, §2, §3, §4

[13] = test system: DIGSA, Digitaria sanguinalis (large crabgrass); assay: as above
Description: as §1, §2, §3, §4

[14] = test system: STEME, Stellaria media (chickweed); assay: as above
Description: as §1, §2, §3, §4

[15] = test system: SETFA, Setaria faberi (giant foxtail); assay: as above
Description: as §1, §2, §3, §4

[16] = test system: LOLMU, Lolium multiflorum (Italian ryegrass); assay: as above
Description: as §1, §2, §3, §4

[17] = test system: BRSNN, Brassica napus (spring rape); assay: as above
Description: as §1, §2, §3, §4

[18] = test system: ABUTH, Abutilon theophrasti (velvetleaf); assay: as above
Description: as §1, §2, §3, §4

[19] = test system: VIOTR, Viola tricolor (wild pansy); assay: as above
Description: as §1, §2, §3, §4

[20] = test system: IPOHE, Ipomoea hederacea (ivyleaf morningglory); assay: as above
Description: as §1, §2, §3, §4

[21] = test system: EPHHL, Euphorbia heterophylla (poinsettia); assay: as above
Description: as §1, §2, §3, §4

[22] = test system: ECHCG, Echinochloa crus-galli (barnyard grass); assay: as above
Description: as §1, §2, §3, §4

`CS(=O)(=O)c1ccc(C(=O)C2C(=O)CCCC2=O)c(Cl)c1COCC(F)(F)F` [Tembotrione, 2-[2-chloro-4-(methylsulfonyl)-3-[(2,2,2-trifluoroethoxy)methyl]benzoyl]-1,3-cyclohexanedione] was tested, and the “% visual injury Obs” value ([1]; Tembotrione 25 g ai/ha) was 100%, the “% visual injury Obs” value ([2]; Tembotrione 25 g ai/ha) was 75% and the pest or weed control at 25 g/ha ([3]; KCHSC, Tembotrione 25 g ai/ha) was 48%. The “% visual injury Obs” value ([4]; Tembotrione 25 g ai/ha) was 100%, the “% visual injury Obs” value ([5]; Tembotrione 25 g ai/ha) was 95% and the “% visual injury Obs” value ([6]; Tembotrione 25 g ai/ha) was 73%. For the same compound, the “% visual injury Obs” value ([7]; Tembotrione 25 g ai/ha) was 25%, the “% visual injury Obs” value ([8]; Tembotrione 25 g ai/ha) was 88% and the “% visual injury Obs” value ([9]; Tembotrione 25 g ai/ha) was 78%.

For `N#CCOC(=O)c1nc(-c2ccc3cc[nH]c3c2F)c(F)c(N)c1Cl` [Compound A, cyanomethyl 4-amino-3-chloro-5-fluoro-6-(7-fluoro-1H-indol-6-yl)pyridine-2-carboxylate], the “% visual injury Obs” value ([10]; Compound A 7.5 g ae/ha) was 8% and 0%, the “% visual injury Obs” value ([10]; Compound A 10 g ae/ha) was 0% and the “% visual injury Obs” value ([11]; Compound A 7.5 g ae/ha) was 0%. The “% visual injury Obs” value ([11]; Compound A 10 g ae/ha) was 0%, the “% visual injury Obs” value ([1]; Compound A 7.5 g ae/ha) was 80% and 90% and 70% and the “% visual injury Obs” value ([1]; Compound A 10 g ae/ha) was 85% and 90%. The “% visual injury Obs” value ([12]; Compound A 7.5 g ae/ha) was 83%, the “% visual injury Obs” value ([12]; Compound A 10 g ae/ha) was 88% and the “% visual injury Obs” value ([13]; Compound A 7.5 g ae/ha) was 13%. The “% visual injury Obs” value ([13]; Compound A 10 g ae/ha) was 25%, the “% visual injury Obs” value ([14]; Compound A 7.5 g ae/ha) was 90% and the “% visual injury Obs” value ([14]; Compound A 10 g ae/ha) was 85%. The “% visual injury Obs” value ([15]; Compound A 7.5 g ae/ha) was 60%, the “% visual injury Obs” value ([15]; Compound A 10 g ae/ha) was 78% and the “% visual injury Obs” value ([16]; Compound A 7.5 g ae/ha) was 8%. For the same compound, the “% visual injury Obs” value ([16]; Compound A 10 g ae/ha) was 3%, the pest or weed control at 7.5 g/ha ([3]; KCHSC, Compound A 7.5 g ae/ha) was 63% and the pest or weed control at 10 g/ha ([3]; KCHSC, Compound A 10 g ae/ha) was 70%. The “% visual injury Obs” value ([4]; Compound A 7.5 g ae/ha) was 75% and 70%, the “% visual injury Obs” value ([4]; Compound A 10 g ae/ha) was 80% and 78% and the “% visual injury Obs” value ([5]; Compound A 7.5 g ae/ha) was 83% and 85%. The “% visual injury Obs” value ([5]; Compound A 10 g ae/ha) was 88%, the “% visual injury Obs” value ([17]; Compound A 10 g ae/ha) was 45% and 60% and the “% visual injury Obs” value ([18]; Compound A 7.5 g ae/ha) was 40%. The “% visual injury Obs” value ([18]; Compound A 10 g ae/ha) was 48%, the “% visual injury Obs” value ([6]; Compound A 7.5 g ae/ha) was 10% and 18% and the “% visual injury Obs” value ([6]; Compound A 10 g ae/ha) was 20% and 30%. The “% visual injury Obs” value ([7]; Compound A 10 g ae/ha) was 70% and 43%, the “% visual injury Obs” value ([19]; Compound A 7.5 g ae/ha) was 3% and the “% visual injury Obs” value ([19]; Compound A 10 g ae/ha) was 3%. For the same compound, the “% visual injury Obs” value ([20]; Compound A 7.5 g ae/ha) was 5%, the “% visual injury Obs” value ([20]; Compound A 10 g ae/ha) was 0% and the “% visual injury Obs” value ([21]; Compound A 7.5 g ae/ha) was 91%. For the same compound, the “% visual injury Obs” value ([21]; Compound A 10 g ae/ha) was 83%, the “% visual injury Obs” value ([22]; Compound A 7.5 g ae/ha) was 80% and the “% visual injury Obs” value ([22]; Compound A 10 g ae/ha) was 88%. The “% visual injury Obs” value ([8]; Compound A 7.5 g ae/ha) was 35% and 63%, the “% visual injury Obs” value ([8]; Compound A 10 g ae/ha) was 40% and 68% and the “% visual injury Obs” value ([9]; Compound A 7.5 g ae/ha) was 60%. For the same compound, the “% visual injury Obs” value ([9]; Compound A 10 g ae/ha) was 63%.

With `CS(=O)(=O)c1ccc(C(=O)C2C(=O)CCCC2=O)c(Cl)c1` [Sulcotrione, 2-[2-chloro-4-(methylsulfonyl)benzoyl]-1,3-cyclohexanedione] the “% visual injury Obs” value ([10]; Sulcotrione 75 g ai/ha) was 8%, the “% visual injury Obs” value ([11]; Sulcotrione 75 g ai/ha) was 0% and the pest or weed control at 75 g/ha [3] was 30%. The “% visual injury Obs” value ([17]; Sulcotrione 75 g ai/ha) was 75%.

`Cc1ccc(S(=O)(=O)Oc2c(C(=O)c3ccc(Cl)cc3Cl)c(C)nn2C)cc1` [Pyrazolynate, (2,4-dichlorophenyl) [1,3-dimethyl-5-[[(4-methylphenyl)sulfonyl]oxy]-1H-pyrazol-4-yl]methanone] was tested, and the “% visual injury Obs” value ([1]; Pyrazolynate 225 g ai/ha) was 10%, the “% visual injury Obs” value ([2]; Pyrazolynate 225 g ai/ha) was 0% and the pest or weed control at 225 g/ha ([3]; KCHSC, Pyrazolynate 225 g ai/ha) was 0%. For the same compound, the “% visual injury Obs” value ([4]; Pyrazolynate 225 g ai/ha) was 5%, the “% visual injury Obs” value ([5]; Pyrazolynate 225 g ai/ha) was 5% and the “% visual injury Obs” value ([6]; Pyrazolynate 225 g ai/ha) was 0%. For the same compound, the “% visual injury Obs” value ([7]; Pyrazolynate 225 g ai/ha) was 5%, the “% visual injury Obs” value ([8]; Pyrazolynate 225 g ai/ha) was 0% and the “% visual injury Obs” value ([9]; Pyrazolynate 225 g ai/ha) was 0%.
